Measured values: publication PMC7340583, “The yeast cell wall protein Pry3 inhibits mating through highly conserved residues within the CAP domain” (Biology Open, 2020)
Where a chain is given by its changes, count along the chain named. Where two headings read alike, the source gives them in different places.

Experiments:
Experiment in all cases: radioligand binding, Q-sepharose adsorption, scintillation counting
Pry1 CAP domain = biological target: T1, Pry1 CAP domain (Saccharomyces cerevisiae, UniProt P47032)
T1 sequence (P47032 20-299 limits assumed): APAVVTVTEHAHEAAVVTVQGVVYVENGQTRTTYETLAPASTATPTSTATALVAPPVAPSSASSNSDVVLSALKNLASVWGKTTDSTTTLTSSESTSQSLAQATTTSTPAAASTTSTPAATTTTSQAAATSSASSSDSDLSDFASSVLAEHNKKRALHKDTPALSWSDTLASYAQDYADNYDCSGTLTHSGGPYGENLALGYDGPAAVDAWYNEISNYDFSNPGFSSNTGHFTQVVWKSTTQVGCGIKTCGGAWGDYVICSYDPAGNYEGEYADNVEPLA
Text: radioligand binding, Q-sepharose adsorption, scintillation counting on Pry1 CAP domain | Polyhistidine-tagged versions of the CAP domain of Pry1, Pry3 and mutant versions of Pry3 | The affinity of Pry3 to palmitic acid is thus similar to that of Pry1

[1] = biological target: T2, Pry3 CAP domain (Pry3-CAP) (Saccharomyces cerevisiae, UniProt P47033)
T2 sequence (P47033 18-161): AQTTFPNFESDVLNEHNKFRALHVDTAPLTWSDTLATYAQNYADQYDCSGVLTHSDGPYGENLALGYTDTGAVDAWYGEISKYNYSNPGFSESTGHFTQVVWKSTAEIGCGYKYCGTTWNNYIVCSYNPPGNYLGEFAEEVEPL

[2] = biological target: T3, Pry3 CAP domain (Pry3-CAP) (Saccharomyces cerevisiae, UniProt P47033, C142S); conditions: labelled compound; 20 mM Tris pH 7.5, 30 mM NaCl, 0.05% Triton X-100, 30°C, 1 h
T3 sequence (P47033 18-161 C142S): T2 sequence (P47033 18-161) with C125S

[3] = biological target: T4, Pry3 CAP domain (Pry3-CAP) (Saccharomyces cerevisiae, UniProt P47033, P105C/A155C); conditions: labelled compound; 20 mM Tris pH 7.5, 30 mM NaCl, 0.05% Triton X-100, 30°C, 1 h
T4 sequence (P47033 18-161 P105C/A155C): T2 sequence (P47033 18-161) with P88C, A138C

[4] = biological target: T5, Pry3 CAP domain (Pry3-CAP) (Saccharomyces cerevisiae, UniProt P47033, V117M); conditions: labelled compound; 20 mM Tris pH 7.5, 30 mM NaCl, 0.05% Triton X-100, 30°C, 1 h
T5 sequence (P47033 18-161 V117M): T2 sequence (P47033 18-161) with V100M

SMILES	Kd (Pry1 CAP domain; labelled compound, 20 mM Tris pH 7.5, 30 mM NaCl, 0.05% Triton X-100, 30°C, 1 h)	Kd [1]	radioligand binding, Q-sepharose adsorption, scintillation counting [2]	radioligand binding, Q-sepharose adsorption, scintillation counting [3]	Kd (Pry1 CAP domain)	radioligand binding, Q-sepharose adsorption, scintillation counting [4]
CC(C)CCC[C@@H](C)[C@H]1CC[C@H]2[C@@H]3CC=C4C[C@@H](O)CC[C@]4(C)[C@H]3CC[C@]12C [cholesterol]	1.88 µM	13.1 µM	as present in Pry3-CAP^C142S, disrupted sterol binding in vitro	decreased sterol-binding of Pry3-CAP^P105C, A155C to background levels	–	–
CCCCCCCCCCCCCCCC(=O)O [palmitic acid]	–	114 µM	–	–	111 µM	Pry3^V117M failed to efficiently bind palmitic acid in vitro
